Reference: ChEMBL document CHEMBL1156254, “4-Pregnen-21-ol-3,20-dione-21-(4-bromobenzenesulfonate) (NSC 88915) and related novel steroid derivatives as tyrosyl-DNA phosphodiesterase (Tdp1) inhibitors” (J Med Chem, 2009)
Calls of active or inactive are those of the source. The calls are words filed in the database; no cut-off is given here.

These compounds were tested against Tyrosyl-DNA phosphodiesterase 1 (Homo sapiens) (UniProt Q9NUW8) (assay: Ratio of IC50 of test compound to IC50 of NSC88915 for human Tdp1 assessed as blockade of enzyme-mediated hydrolysis of phosphodiester linkage between tyrosine and 3^-end of N14Y DNA substrate by SDS-PAGE electrophoresis).
Tyrosyl-DNA phosphodiesterase 1 (Homo sapiens), sequence (Q9NUW8 whole entry): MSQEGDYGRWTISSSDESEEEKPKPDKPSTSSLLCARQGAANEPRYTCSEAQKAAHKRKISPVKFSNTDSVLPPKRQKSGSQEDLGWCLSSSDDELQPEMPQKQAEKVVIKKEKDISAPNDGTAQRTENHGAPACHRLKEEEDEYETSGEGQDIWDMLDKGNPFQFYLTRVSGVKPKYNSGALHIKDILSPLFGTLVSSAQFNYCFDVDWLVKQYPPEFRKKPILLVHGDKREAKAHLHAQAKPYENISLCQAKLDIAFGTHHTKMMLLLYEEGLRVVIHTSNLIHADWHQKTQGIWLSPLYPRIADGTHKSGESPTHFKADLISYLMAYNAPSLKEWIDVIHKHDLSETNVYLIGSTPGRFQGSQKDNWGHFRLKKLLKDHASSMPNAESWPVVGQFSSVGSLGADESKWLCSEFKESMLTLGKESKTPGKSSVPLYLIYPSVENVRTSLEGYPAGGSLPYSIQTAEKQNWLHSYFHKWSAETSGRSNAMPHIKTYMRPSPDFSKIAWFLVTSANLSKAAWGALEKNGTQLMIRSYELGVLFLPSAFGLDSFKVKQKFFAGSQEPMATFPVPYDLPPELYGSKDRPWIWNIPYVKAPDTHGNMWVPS

Compound | Ratio IC50
C[C@]12CC[C@H]3[C@@H](CCC4=CC(=O)CC[C@@]43C)[C@@H]1CC[C@@H]2C(=O)COS(=O)(=O)c1ccc([N+](=O)[O-])cc1 | < 3
C[C@]12CC[C@H]3[C@@H](CCC4=CC(=O)CC[C@@]43C)[C@@H]1CC[C@@H]2C(=O)COS(=O)(=O)c1ccc(F)cc1 | < 3
C[C@]12CC[C@H]3[C@@H](CCC4=CC(=O)CC[C@@]43C)[C@@H]1CC[C@@H]2C(=O)COS(=O)(=O)c1ccccc1 | < 3
C[C@]12CC[C@H]3[C@@H](CCC4=CC(=O)CC[C@@]43C)[C@@H]1CC[C@@H]2C(=O)COS(=O)(=O)c1ccc(Cl)cc1 | < 3
Cc1ccc(S(=O)(=O)OCC(=O)[C@H]2CC[C@H]3[C@@H]4CCC5=CC(=O)CC[C@]5(C)[C@H]4CC[C@]23C)cc1 | < 3

Each compound was assayed against DNA repair nuclease/redox regulator APEX1 (Homo sapiens) (UniProt P27695) (assay: Inhibition of human APE1 up to 100 uM).
DNA repair nuclease/redox regulator APEX1 (Homo sapiens), sequence (P27695 whole entry): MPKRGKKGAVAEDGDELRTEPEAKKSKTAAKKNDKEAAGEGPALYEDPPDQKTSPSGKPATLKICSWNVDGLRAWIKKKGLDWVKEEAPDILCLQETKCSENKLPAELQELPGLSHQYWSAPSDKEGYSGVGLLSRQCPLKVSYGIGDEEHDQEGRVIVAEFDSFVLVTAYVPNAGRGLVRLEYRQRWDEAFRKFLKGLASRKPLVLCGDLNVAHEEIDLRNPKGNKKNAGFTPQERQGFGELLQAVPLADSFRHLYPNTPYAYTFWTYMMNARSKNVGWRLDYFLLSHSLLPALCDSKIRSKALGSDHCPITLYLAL

Compound | inhibition
C[C@]12CC[C@H]3[C@@H](CCC4=CC(=O)CC[C@@]43C)[C@@H]1CC[C@@H]2C(=O)COS(=O)(=O)c1ccc(Br)cc1 | inactive
